Some test systems named below: SF-268 CNS; SR leukemia; SF-295 CNS; SK-OV-3 ovarian; HOP-92 NSCLC; RXF 393 renal.
What all share (experiment): NCI tumour cell line growth inhibition, 48 h

For nine molecules, GI50 and TGI results are on record in PubChem BioAssay (NCI).

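A five-concentration, 48-hour dose response in 96-well plates underlies each endpoint, interpolated linearly between surrounding concentrations. The concentration for 50% growth inhibition is given as GI50. TGI marks complete inhibition of growth.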

Regarding `COc1cc2c(cc1Nc1nc(Nc3ccsc3C(N)=O)c3cc[nH]c3n1)N(C(=O)CN(C)C)CCC2(C)C`, the GI50 in the assay on SF-268 CNS was 2.6 µM; in the assay with SR leukemia it was 5.96 nM; with SF-295 CNS, 3.33 µM; in the assay on SK-OV-3 ovarian, 3.64 µM; with HOP-92 NSCLC, < 2.5 nM; in the assay with RXF 393 renal, 1670 nM. Also, the TGI with SF-268 CNS was determined as 5.75 µM; in the assay on SR leukemia, 4.6 µM; with SF-295 CNS it was 7.39 µM; with SK-OV-3 ovarian, 6.94 µM; in the assay on HOP-92 NSCLC it was 0.833 µM; in the assay on RXF 393 renal, 5.09 µM.
On to `O=C(Nc1ccccc1)NS(=O)(=O)c1ccc(-n2nc3c(c2-c2ccc(Cl)cc2)Cc2ccccc2-3)cc1`, for which the GI50 is 14.8 µM with SF-268 CNS; 2820 nM in the assay with SR leukemia; 18.2 µM in the assay on SF-295 CNS; 53.9 µM in the assay with SK-OV-3 ovarian; 17100 nM in the assay on HOP-92 NSCLC; 22200 nM in the assay with RXF 393 renal. The TGI with SF-268 CNS was 88.2 µM; with SR leukemia it was 7.18 µM; with SF-295 CNS, 78.1 µM; in the assay on SK-OV-3 ovarian, > 100 µM; with HOP-92 NSCLC, 67 µM; with RXF 393 renal, 85.7 µM.
As to `O=[N+]([O-])c1c(Br)sc(Br)c1[N+](=O)[O-]`, the GI50 was 12.5 µM in the assay on SF-268 CNS; 633 nM with SR leukemia; 14.2 µM in the assay with SF-295 CNS; 14 µM with SK-OV-3 ovarian; 1870 nM in the assay with HOP-92 NSCLC; 1470 nM in the assay on RXF 393 renal. For the same molecule, the TGI in the assay on SF-268 CNS stood at 25 µM; in the assay on SR leukemia it was 11.7 µM; in the assay on SF-295 CNS it was 28.6 µM; in the assay with SK-OV-3 ovarian, 27 µM; in the assay on HOP-92 NSCLC it was 3.57 µM; with RXF 393 renal, 2.85 µM.
Turning to `Nc1nc(-c2ccccc2)nc(N)c1N=O`, the GI50 with SF-268 CNS was 12.3 µM; with SR leukemia it was 3630 nM; in the assay on SF-295 CNS, 18.1 µM; with SK-OV-3 ovarian it was 11.9 µM; with HOP-92 NSCLC, 5320 nM; in the assay on RXF 393 renal, 2070 nM. The TGI with SF-268 CNS amounted to 39.2 µM; in the assay with SR leukemia, 54.9 µM; with SF-295 CNS, 52.9 µM; in the assay on SK-OV-3 ovarian, 26 µM; in the assay with HOP-92 NSCLC it was 23.5 µM; with RXF 393 renal, 7.07 µM.
Turning to `COc1cc(O)c(C(=O)/C=C/c2ccc(O)cc2)c(O)c1[C@@H]1C[C@H](CCc2ccc(O)cc2)O[C@H](c2ccc(O)cc2)C1`, the GI50 in the assay with SF-268 CNS was 3.85 µM; in the assay with SR leukemia, 2230 nM; with SF-295 CNS it was 4.36 µM; in the assay on SK-OV-3 ovarian, 2.82 µM; in the assay with HOP-92 NSCLC, 2000 nM; in the assay on RXF 393 renal it was 3100 nM. Also, the TGI worked out at 14.7 µM in the assay with SF-268 CNS; 4.65 µM in the assay on SR leukemia; 17.8 µM in the assay with SF-295 CNS; 7.65 µM with SK-OV-3 ovarian; 5.92 µM in the assay on HOP-92 NSCLC; 9.07 µM with RXF 393 renal.
With `COc1ccc(Nc2c3ccccc3nc3ccccc23)cc1`, the GI50 with SF-268 CNS is 3.63 µM; in the assay on SR leukemia, 482 nM; in the assay on SF-295 CNS, 0.904 µM; in the assay with SK-OV-3 ovarian, 3.66 µM; in the assay with HOP-92 NSCLC, 259 nM; with RXF 393 renal it was 2040 nM. The TGI in the assay on SF-268 CNS was found to be 19.1 µM; in the assay with SR leukemia, 4.01 µM; in the assay on SF-295 CNS it was 10.4 µM; with SK-OV-3 ovarian it was 16.2 µM; in the assay with HOP-92 NSCLC it was 2.93 µM; with RXF 393 renal, 12.1 µM.
In the case of `CC1OC(OC2C(O[C@H]3CC[C@@]4(C)C(=CC[C@H]5[C@@H]6C[C@@H]7O[C@]8(CC[C@H](C)CN8)[C@@H](C)[C@@H]7[C@@]6(C)CC[C@@H]54)C3)OC(CO)C(O)C2OC2OC(CO)C(O)C(O)C2O)C(O)C(O)C1O` (some centres not stated), the TGI came out at 33.3 µM in the assay on SF-268 CNS; 61.6 µM in the assay with SR leukemia; 34.1 µM in the assay on SF-295 CNS; 30.5 µM in the assay with SK-OV-3 ovarian; 35.5 µM in the assay with HOP-92 NSCLC; 31.5 µM in the assay with RXF 393 renal.
`CC[C@@H](C(=O)[C@@H](C)[C@@H](O)[C@H](C)[C@@H]1O[C@@H]([C@@H](CC)C(=O)N(CC)CC)CC[C@@H]1C)C1O[C@]2(C=CC(=O)[C@]3(CC[C@@](C)([C@H]4CC[C@](O)(CC)[C@H](C)O4)O3)O2)[C@H](C)C[C@@H]1C` (some centres not stated): the GI50 with SF-268 CNS was 3.25 µM; in the assay on SR leukemia, 2390 nM; in the assay on SF-295 CNS, 2.26 µM; in the assay with SK-OV-3 ovarian, 3.87 µM; with HOP-92 NSCLC, 1350 nM; in the assay with RXF 393 renal, 1660 nM. The TGI with SF-268 CNS was 80.9 µM; in the assay on SR leukemia it was 6.63 µM; with SF-295 CNS, 6.51 µM; with SK-OV-3 ovarian, > 100 µM; in the assay on HOP-92 NSCLC, 4.6 µM; in the assay on RXF 393 renal it was 4.06 µM.
As to `CC(C)CCN=C(N)c1ccc(N2CCN(c3ccc(C(N)=NCCC(C)C)cc3)CC2)cc1`, the GI50 in the assay on SF-268 CNS is 33.1 µM; in the assay on SR leukemia, 2730 nM; in the assay with SF-295 CNS, 6.68 µM; with SK-OV-3 ovarian, 4.45 µM; in the assay with HOP-92 NSCLC, 3860 nM; with RXF 393 renal it was 7890 nM. The TGI is > 100 µM in the assay with SF-268 CNS; 7.44 µM with SR leukemia; 38.5 µM in the assay on SF-295 CNS; 25.5 µM in the assay on SK-OV-3 ovarian; 24.3 µM with HOP-92 NSCLC; 44.9 µM in the assay on RXF 393 renal.
